# Key:
# [1] = test system: codling moth adults; assay: Cage bioassay, paired traps with synthetic compounds versus water/ethanol control trap; type: in vivo, Cydia pomonella; settings: for attractiveness to the adult insects (insects caught in trap): individual compounds at the concentrations detected in the leaf extracts, paired with control trap of water and ethanol, 60 adults, overnight, decreasing order: methyl salicylate and theaspirane mixture, linalool, benzyl alcohol
# Experimental: (i) Insects—Eggs of the CM Cydia pomonella L. were hatched at room temperature in a petri dish. The larvae were fed an artificial diet (Manduca Premix-Heliothis Premix, Stonefly Inc., Brvan, Tex.), kept at 25±0.5° C., 60±1% relative humidity and a photoperiod of 16:8 h (L:D) until the fifth instar larvae, which were transferred to corrugated paper strips (2 cm^2). Upon emergence, adult insects of mixed sex and age (within 2 days) were used for the cage bioassays.
# (v) Cage bioassays—Trapping tests were conducted in screen cages (96×68×45 cm) in the laboratory at room temperature (23° C.±3° C.) based on the method of Zhu et al. (2003). Sixty codling moth adults of mixed sex and ages (2 days after pupal emergence) were released into a cage containing the traps with different treatments. […] A Whatman paper wick (10 cm long) was used as a dispenser. To examine the effects of adding recombinant BGL1 to the leaf extract, four traps were constructed and put into the same cage. The first trap contained 10 ml of leaf extract with the addition of recombinant BGL1. The second trap contained the same amount of leaf extract with the addition of glucoimidazole. The third trap contained only leaf extract and the fourth trap contained water. The insects caught in the traps, or around the trap, were counted 12 h after their release. The insects around the trap were defined as follows: the space of the screen cage was divided equally into four parts. Each trap was put in the center of each part. The number of the insects present in each specific space, not including the ones inside the trap, was obtained in the experiments. To test the attractiveness of the synthetic compounds, traps were made with the individual chemicals that were first dissolved in ethanol at the concentrations determined by the SPME-GC-MS analyses in leaf extracts treated with BGL1. The final concentration of ethanol was 0.01%. Each trap was kept in the cage with only a control water trap including 0.01% ethanol. The experiments were conducted overnight (from 9 pm to 9 am) to cover their active time before the twilight in the early morning. […] This experiment was replicated 3 times. The traps were randomly arranged in the replications to avoid possible position effect of the traps. The studies on sex ratios of trapped insects were skipped because of complicated involvement of insect pheromones.
# [2] = test system: endogenous β-glucosidase in apple leaf extracts; assay: Quantitative β-glucosidase activity assay with pNPG as substrate; type: biochemical, Malus domestica; settings: 2 μM glucoimidazole added to leaf homogenate
# Experimental: (ii) Apple leaf extract treatments—Apple (cv. Anna) spurs with both leaves and fruit were excised from a commercial orchard in the suburb of Rehovot, Israel, in June 2004. The leaves were excised from the spurs, rinsed with double distilled water (DDW) and then dried with filter paper. Dried leaves were homogenized in liquid nitrogen. Three times the weight of ice-cold extraction buffer containing 10 mM EDTA and 4 mM DTT in 50 mM citrate buffer, pH 4.3, was added to the leaf homogenate (4-5 g per treatment). The mixture was then rotated for 1 h at 4° C. and centrifuged at 16,000 g for 5 min. The supernatant (10 ml per treatment) was collected. In one treatment, 1 unit of recombinant A. niger BGL1 produced in P. pastoris (Dan et al., 2000) was added and the solution was kept at 37° C. for 4 h. In another treatment, 2 μM glucoimidazole (a β-glucosidase inhibitor) was added to the leaf homogenate immediately after the addition of the extraction buffer in order to block any endogenous β-glucosidase activity. Quantitative β-glucosidase activity was assayed using p-nitrophenyl-β-D-glucopyranoside (pNPG) as the substrate according to Shoseyov et al (1990).
structure (smiles),measurement,setting,value
COC(=O)c1ccccc1O [methyl salicylate],attractiveness to the adult insects (insects caught in trap),[1],more attractive than water
OCc1ccccc1 [benzyl alcohol],attractiveness to the adult insects (insects caught in trap),[1],more attractive than water
OC[C@@H]1[C@@H](O)[C@H](O)[C@@H](O)c2nccn21 [glucoimidazole],β-glucosidase activity in the leaf extract after treatment,[2],undetectable levels
C=CC(C)(O)CCC=C(C)C (stereo not shown) [linalool],attractiveness to the adult insects (insects caught in trap),[1],more attractive than water
"CCCCCCCCO [1-octanol, reference compound]",effect on the behavior of codling moth adults,[1]; 1-octanol alone or added to other compounds,does not have a significant effect
same,insects caught in trap,[1]; trap with 70 ng m^−1 1-octanol,did not catch any insects
CC(C)=CCC/C(C)=C/CO [geraniol],repellent effect on codling moth adults,[1]; 39.4 ng ml^−1,exhibited a repellent effect
